Results reported in ChEMBL document CHEMBL5252604, “11C-Labeling of acyclic retinoid peretinoin by rapid C-[11C]methylation to disclose novel brain permeability and central nervous system activities hidden in antitumor agent” (Bioorg Med Chem Lett, 2023).

Assays:
[1] = Drug uptake in iv dosed Wistar rat assessed as standardized uptake value by PET imaging analysis; type: ADME, organism-based; settings: in vivo
[2] = Drug uptake in iv dosed monkey brain assessed as standardized uptake value after 90 mins by PET imaging analysis; type: ADME, organism-based, Macaca mulatta; settings: rhesus monkey, in vivo, 1.5 h
[3] = Drug uptake in iv dosed Wistar rat brain after 3 mins; type: ADME, organism-based; settings: in vivo, 0.05 h
[4] = Drug metabolism in iv dosed Wistar rat brain assessed as metabolite formation after 30 to 90 mins RP-HPLC analysis; type: ADME, organism-based; settings: in vivo, time 30-90 min
[5] = Drug metabolism in iv dosed Wistar rat blood assessed as metabolite formation after 30 mins RP-HPLC analysis; type: ADME, organism-based; settings: in vivo, 0.5 h
[6] = Drug uptake in iv dosed Wistar rat brain assessed as standardized uptake value after 120 mins by PET imaging analysis; type: ADME, organism-based; settings: in vivo, 2 h
[7] = Drug uptake in iv dosed mouse liver assessed as standardized uptake value at 5 mins by PET imaging analysis; type: ADME, organism-based; settings: in vivo
[8] = Drug uptake in iv dosed mouse liver assessed as standardized uptake value at 60 mins by PET imaging analysis; type: ADME, organism-based; settings: in vivo, 1 h
[9] = Drug uptake in iv dosed mouse brain assessed as standardized uptake value by PET imaging analysis; type: ADME, organism-based; settings: in vivo

Row | SUV [1] | SUV [2] | Drug uptake [3] | Drug metabolism [4] | Drug metabolism [5] | SUV [6] | SUV [7] | SUV [8] | SUV [9] | Structure (SMILES)
1 | 0.6 | – | – | – | – | – | – | – | – | CC(C)=CCC/C(C)=C/CC/C(C)=C/C=C/C([11CH3])=C/C(=O)OCc1ccccc1
2 | – | > 3 | Active | Metabolite_Detected | Metabolite_Detected | 1.4 | 6.7 | 4.3 | 0.8 | CC(C)=CCC/C(C)=C/CC/C(C)=C/C=C/C([11CH3])=C/C(=O)O
